Measurements reported in the NIST ThermoML archive (doi:10.1021/je0602115).
Several values for one entry are separate records, joined by “and”; a condition that tells them apart may be missing. Identical values can stand only once. Numbers after ± are expanded uncertainties.

Conditions: 313.15 K; Liquid; Closed cell (Static) method

Compound | vapor or sublimation pressure
CCOC(C)(C)C [2-ethoxy-2-methylpropane] | 31.62 ± 0.12 kPa and 31.63 ± 0.12 kPa and 31.64 ± 0.12 kPa
CCCCCCC [heptane] | 12.32 ± 0.056 kPa and 12.33 ± 0.056 kPa and 12.31 ± 0.056 kPa
Cc1ccccc1 [toluene] | 7.88 ± 0.041 kPa [middle of 4 runs]
